Data published in publication PMC7366380, “Discovery of a Potent and Selective Covalent Inhibitor and Activity-Based Probe for the Deubiquitylating Enzyme UCHL1, with Antifibrotic Activity” (Journal of the American Chemical Society, 2020).
Several values for one entry are separate records, joined by “and”; a condition that tells them apart may be missing. Equal entries are not always repeated.

Columns and labels:
Assay in all cases: In-cell proteome-wide competitive ABPP, HEK293: other DUBs and proteins
[1] = target: DUBs and other proteins in HEK293 cells (Homo sapiens, UniProt O00303); settings: for Log2 reporter intensity values, EIF3F: TMT replicates; for Log2 reporter intensity values: EIF3F: competition with ABP 2, DMSO substract (FC); for Log2 reporter intensity values: EIF3F / Log2 reporter intensity values: replicates A-C; for Log2 t-test Difference / Log2 reporter intensity values: EIF3F
DUBs and other proteins in HEK293 cells (Homo sapiens, UniProt O00303), sequence (O00303 whole entry): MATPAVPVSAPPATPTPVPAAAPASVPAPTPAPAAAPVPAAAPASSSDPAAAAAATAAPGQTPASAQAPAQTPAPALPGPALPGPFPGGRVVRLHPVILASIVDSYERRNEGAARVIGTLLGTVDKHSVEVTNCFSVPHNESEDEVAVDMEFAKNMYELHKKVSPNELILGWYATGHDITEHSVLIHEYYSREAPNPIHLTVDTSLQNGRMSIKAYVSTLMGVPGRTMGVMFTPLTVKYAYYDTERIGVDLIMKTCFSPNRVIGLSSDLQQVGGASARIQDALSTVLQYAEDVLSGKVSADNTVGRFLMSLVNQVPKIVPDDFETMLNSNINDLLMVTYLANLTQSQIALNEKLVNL

[2] = target: T1, DUBs and other proteins in HEK293 cells (Homo sapiens, UniProt Q96K76); settings: replicates A-C; for Log2 reporter intensity values: USP47: competition with ABP 2, DMSO substract (FC); for Log2 reporter intensity values: USP47, DMSO subtracted
T1 sequence (Q96K76 1-1375): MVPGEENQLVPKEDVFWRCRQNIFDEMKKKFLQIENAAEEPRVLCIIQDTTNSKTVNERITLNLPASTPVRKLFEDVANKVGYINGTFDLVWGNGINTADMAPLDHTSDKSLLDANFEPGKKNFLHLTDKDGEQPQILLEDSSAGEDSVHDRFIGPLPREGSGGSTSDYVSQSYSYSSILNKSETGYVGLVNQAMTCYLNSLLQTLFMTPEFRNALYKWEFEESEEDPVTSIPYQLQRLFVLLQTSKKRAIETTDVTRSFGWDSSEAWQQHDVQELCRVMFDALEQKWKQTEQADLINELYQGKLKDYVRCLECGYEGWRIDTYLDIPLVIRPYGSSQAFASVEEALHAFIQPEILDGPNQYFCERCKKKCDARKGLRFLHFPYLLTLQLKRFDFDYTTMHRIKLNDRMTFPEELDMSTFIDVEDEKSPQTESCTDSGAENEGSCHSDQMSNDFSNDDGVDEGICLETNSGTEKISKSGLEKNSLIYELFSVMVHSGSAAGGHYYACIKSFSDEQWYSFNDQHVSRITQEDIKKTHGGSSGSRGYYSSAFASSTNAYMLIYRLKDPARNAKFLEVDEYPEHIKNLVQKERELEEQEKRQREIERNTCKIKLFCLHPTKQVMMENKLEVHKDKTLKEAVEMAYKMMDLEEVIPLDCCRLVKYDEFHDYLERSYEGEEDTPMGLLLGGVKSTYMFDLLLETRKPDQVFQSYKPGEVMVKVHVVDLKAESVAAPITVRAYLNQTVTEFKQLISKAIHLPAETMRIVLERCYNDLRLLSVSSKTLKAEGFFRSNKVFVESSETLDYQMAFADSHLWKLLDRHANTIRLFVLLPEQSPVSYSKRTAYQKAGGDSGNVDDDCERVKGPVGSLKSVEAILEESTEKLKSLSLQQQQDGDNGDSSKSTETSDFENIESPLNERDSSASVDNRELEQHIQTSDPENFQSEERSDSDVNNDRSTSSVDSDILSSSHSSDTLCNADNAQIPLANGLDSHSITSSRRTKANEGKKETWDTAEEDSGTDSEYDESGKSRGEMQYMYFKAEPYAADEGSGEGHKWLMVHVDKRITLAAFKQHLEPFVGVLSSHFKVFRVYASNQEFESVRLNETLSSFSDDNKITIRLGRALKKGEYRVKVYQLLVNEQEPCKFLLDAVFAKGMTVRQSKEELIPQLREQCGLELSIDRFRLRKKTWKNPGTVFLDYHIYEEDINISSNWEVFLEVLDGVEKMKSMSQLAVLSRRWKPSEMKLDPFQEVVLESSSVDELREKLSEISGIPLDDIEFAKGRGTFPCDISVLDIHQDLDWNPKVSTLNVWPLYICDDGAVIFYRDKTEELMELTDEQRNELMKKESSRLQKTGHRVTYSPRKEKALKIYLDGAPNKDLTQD

[3] = target: T2, DUBs and other proteins in HEK293 cells (Homo sapiens, UniProt Q9Y5K5); settings: replicates A-C; for Log2 reporter intensity values: UCHL5: competition with ABP 2, DMSO substract (FC); for Log2 reporter intensity values: UCHL5, DMSO subtracted
T2 sequence (Q9Y5K5 1-329): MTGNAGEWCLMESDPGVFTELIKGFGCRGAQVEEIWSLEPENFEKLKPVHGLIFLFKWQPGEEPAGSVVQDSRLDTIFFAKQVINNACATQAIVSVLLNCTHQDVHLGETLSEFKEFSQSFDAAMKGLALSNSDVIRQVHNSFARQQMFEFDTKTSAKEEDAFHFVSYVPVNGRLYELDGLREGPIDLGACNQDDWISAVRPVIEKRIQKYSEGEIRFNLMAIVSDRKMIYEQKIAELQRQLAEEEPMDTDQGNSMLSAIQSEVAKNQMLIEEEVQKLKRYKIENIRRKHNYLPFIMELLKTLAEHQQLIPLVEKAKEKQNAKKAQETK

[4] = target: DUBs and other proteins in HEK293 cells (Homo sapiens, UniProt Q96BN8); settings: replicates A-C; for Log2 reporter intensity values: OTULIN: competition with ABP 2, DMSO substract (FC); for Log2 reporter intensity values: OTULIN, DMSO subtracted
DUBs and other proteins in HEK293 cells (Homo sapiens, UniProt Q96BN8), sequence (Q96BN8 whole entry): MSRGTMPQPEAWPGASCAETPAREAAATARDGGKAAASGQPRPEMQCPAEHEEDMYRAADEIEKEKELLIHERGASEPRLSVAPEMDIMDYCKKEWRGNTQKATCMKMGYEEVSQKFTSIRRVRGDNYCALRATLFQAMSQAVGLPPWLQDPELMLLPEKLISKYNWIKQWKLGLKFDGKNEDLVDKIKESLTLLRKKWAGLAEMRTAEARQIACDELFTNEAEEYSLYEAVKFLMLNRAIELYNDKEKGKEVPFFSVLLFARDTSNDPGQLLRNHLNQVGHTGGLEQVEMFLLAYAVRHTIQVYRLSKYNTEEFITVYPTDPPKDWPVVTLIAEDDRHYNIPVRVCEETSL

[5] = target: DUBs and other proteins in HEK293 cells (Homo sapiens, UniProt Q14694); settings: replicates A-C; for Log2 reporter intensity values: USP10: competition with ABP 2, DMSO substract (FC); for Log2 reporter intensity values: USP10, DMSO subtracted
DUBs and other proteins in HEK293 cells (Homo sapiens, UniProt Q14694), sequence (Q14694 whole entry): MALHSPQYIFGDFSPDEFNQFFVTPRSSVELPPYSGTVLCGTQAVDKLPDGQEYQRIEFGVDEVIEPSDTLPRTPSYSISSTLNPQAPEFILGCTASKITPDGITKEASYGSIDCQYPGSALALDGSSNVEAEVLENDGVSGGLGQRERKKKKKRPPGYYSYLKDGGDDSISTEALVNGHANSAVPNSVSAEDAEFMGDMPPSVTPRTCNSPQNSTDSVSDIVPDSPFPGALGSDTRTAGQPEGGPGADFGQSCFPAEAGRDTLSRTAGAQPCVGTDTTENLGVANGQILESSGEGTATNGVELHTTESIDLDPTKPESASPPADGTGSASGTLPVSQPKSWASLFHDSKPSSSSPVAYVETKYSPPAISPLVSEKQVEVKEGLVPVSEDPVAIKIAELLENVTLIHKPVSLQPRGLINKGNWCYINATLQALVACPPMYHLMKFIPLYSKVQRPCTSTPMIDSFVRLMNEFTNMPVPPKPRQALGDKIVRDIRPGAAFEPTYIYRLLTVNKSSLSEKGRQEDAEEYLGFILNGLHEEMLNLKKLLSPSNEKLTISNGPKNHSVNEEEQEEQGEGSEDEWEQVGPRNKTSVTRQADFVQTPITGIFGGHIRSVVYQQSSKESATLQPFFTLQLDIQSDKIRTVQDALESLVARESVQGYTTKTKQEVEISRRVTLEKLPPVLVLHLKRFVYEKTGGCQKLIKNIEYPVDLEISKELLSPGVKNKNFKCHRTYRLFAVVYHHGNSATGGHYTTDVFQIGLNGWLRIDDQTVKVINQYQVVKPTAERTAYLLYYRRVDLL

In the case of `N#CN1CCC[C@@H]1C(=O)N1CCc2c(-c3c[nH]c4ncccc34)cccc21` [Compound 3], the “Log2 reporter intensity values, EIF3F” value ([1]; 1 μM 3 (60 min) + 20 nM ABP 2 (10 min), All values) is reported as 0.01809 and -0.02026 and 0.07981, the “Log2 reporter intensity values, EIF3F” value ([1]; 1 μM 3 (60 min) + 20 nM ABP 2 (10 min), DMSO subtracted) is reported as 0.02764 and -0.01071 and 0.08936 and the “Log2 reporter intensity values, EIF3F” value ([1]; 4 μM 3 (60 min) + 20 nM ABP 2 (10 min), All values) is reported as -0.1978 and 0.02104 and -0.01378. The “Log2 reporter intensity values, EIF3F” value ([1]; 4 μM 3 (60 min) + 20 nM ABP 2 (10 min), DMSO subtracted) was -0.1882 and 0.03059 and -0.004226, the “Log2 reporter intensity values: EIF3F” value ([1]; 3 at 1 μM) was 1.019 and 0.9926 and 1.064 and the “Log2 reporter intensity values: EIF3F” value ([1]; 3 at 4 μM) was 0.8777 and 1.021 and 0.9971. For the same compound, the “Log2 t-test Difference” value ([1]; 3 - 1 μM) was -0.05527, the “Log2 t-test Difference” value ([1]; 3 - 4 μM) was -0.1447 and the “Log2 reporter intensity values” ([1]; 3_1 μM, DMSO subtracted) was 0.01893 and -0.007817 and 0.06348. The “Log2 reporter intensity values” ([1]; 3_4 μM, DMSO subtracted) was -0.1227 and 0.02101 and -0.003343, the “Log2 reporter intensity values” ([1]; 3 at 1 μM, DMSO subtracted) was 0.02764 and -0.01071 and 0.08936 and the “Log2 reporter intensity values” ([1]; 3 at 4 μM, DMSO subtracted) was -0.1882 and 0.03059 and -0.004226. For the same compound, the “Log2 reporter intensity values: USP47” value ([2]; 3 at 1 μM) was 1.001 and 0.9758 and 1.097, the “Log2 reporter intensity values: USP47” value ([2]; 3 at 4 μM) was 0.9921 and 1.112 and 1.049 and the “Log2 reporter intensity values” ([2]; 3_1 μM) was 0.0008917 and -0.02426 and 0.09736. For the same compound, the “Log2 reporter intensity values” ([2]; 3_4 μM) was -0.008057 and 0.1123 and 0.04861, the “Log2 reporter intensity values” ([2]; 3 at 1 μM) was 0.001442 and -0.03527 and 0.1342 and the “Log2 reporter intensity values” ([2]; 3 at 4 μM) was -0.01151 and 0.1537 and 0.06863. The “Log2 reporter intensity values: UCHL5” value ([3]; 3 at 1 μM) was 1.151 and 1.125 and 1.14, the “Log2 reporter intensity values: UCHL5” value ([3]; 3 at 4 μM) was 0.8761 and 0.9259 and 0.9496 and the “Log2 reporter intensity values” ([3]; 3_1 μM) was 0.1503 and 0.124 and 0.1395. For the same compound, the “Log2 reporter intensity values” ([3]; 3_4 μM) was -0.1246 and -0.07482 and -0.05103, the “Log2 reporter intensity values” ([3]; 3 at 1 μM) was 0.2029 and 0.1696 and 0.1893 and the “Log2 reporter intensity values” ([3]; 3 at 4 μM) was -0.1908 and -0.1111 and -0.07454. For the same compound, the “Log2 reporter intensity values: OTULIN” value ([4]; 3 at 1 μM) was 1.194 and 0.9889 and 0.9216, the “Log2 reporter intensity values: OTULIN” value ([4]; 3 at 4 μM) was 0.8963 and 0.9821 and 1.002 and the “Log2 reporter intensity values” ([4]; 3_1 μM) was 0.1933 and -0.01163 and -0.07888. For the same compound, the “Log2 reporter intensity values” ([4]; 3_4 μM) was -0.1043 and -0.01848 and 0.001875, the “Log2 reporter intensity values” ([4]; 3 at 1 μM) was 0.2556 and -0.01611 and -0.1177 and the “Log2 reporter intensity values” ([4]; 3 at 4 μM) was -0.158 and -0.02613 and 0.003463. For the same compound, the “Log2 reporter intensity values: USP10” value ([5]; 3 at 1 μM) was 0.9243 and 0.9306 and 0.9846, the “Log2 reporter intensity values: USP10” value ([5]; 3 at 4 μM) was 0.9265 and 0.935 and 0.9597 and the “Log2 reporter intensity values” ([5]; 3_1 μM) was -0.07662 and -0.07034 and -0.01633. For the same compound, the “Log2 reporter intensity values” ([5]; 3_4 μM) was -0.07444 and -0.066 and -0.04125, the “Log2 reporter intensity values” ([5]; 3 at 1 μM) was -0.1135 and -0.1037 and -0.02233 and the “Log2 reporter intensity values” ([5]; 3 at 4 μM) was -0.1101 and -0.09701 and -0.05932.
